What was measured:
[1] = molecular target: T1, murine IRE1α (Mus musculus, UniProt Q9EQY0, N772Y); assay: biochemical; details: IC50 IRE1α RNase activity, naphthol analogue series, average n=4 +/- s.d.
[2] = molecular target: T2, murine IRE1α Lys907Ala (Mus musculus, UniProt Q9EQY0, K907A/N772Y); assay: Gel based RNase cleavage assay with dual-hairpin RNA substrate; format: biochemical; details: 100 μM IRE1α, 60 μM dual hairpin substrate
[3] = molecular target: T2, murine IRE1α Lys907Ala; assay: Direct binding by micro-scale thermophoresis
[4] = tested on: CD59 mRNA (RIDD target); assay: CD59; format: cell-based, human; details: 10 μM
[5] = molecular target: murine IRE1α Phe889Ala (Mus musculus, UniProt Q9EQY0, F889A/N772Y); assay: Direct binding by micro-scale thermophoresis; details: Kd (avg), average
murine IRE1α Phe889Ala, sequence (Q9EQY0 499-977 N772Y/F889A): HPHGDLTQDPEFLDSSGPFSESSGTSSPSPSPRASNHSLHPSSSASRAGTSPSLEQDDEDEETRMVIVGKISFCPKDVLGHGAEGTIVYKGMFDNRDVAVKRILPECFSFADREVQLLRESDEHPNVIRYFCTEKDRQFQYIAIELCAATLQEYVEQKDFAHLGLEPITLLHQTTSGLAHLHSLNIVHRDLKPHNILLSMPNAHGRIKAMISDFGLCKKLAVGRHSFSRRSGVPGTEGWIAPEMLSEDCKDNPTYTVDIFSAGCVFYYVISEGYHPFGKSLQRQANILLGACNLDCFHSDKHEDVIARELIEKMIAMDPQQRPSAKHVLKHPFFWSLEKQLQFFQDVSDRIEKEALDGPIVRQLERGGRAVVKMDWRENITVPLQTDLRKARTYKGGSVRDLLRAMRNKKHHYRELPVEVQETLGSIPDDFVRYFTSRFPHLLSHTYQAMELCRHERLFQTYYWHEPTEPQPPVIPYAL

[6] = molecular target: murine IRE1α His910Ala (Mus musculus, UniProt Q9EQY0, H910A/N772Y); assay: Direct binding by micro-scale thermophoresis; details: Kd (avg), average
murine IRE1α His910Ala, sequence (Q9EQY0 499-977 N772Y/H910A): as the sequence (Q9EQY0 499-977 N772Y/F889A) above, with A391F, H412A counted along it

[7] = molecular target: murine IRE1α Asn906Leu (Mus musculus, UniProt Q9EQY0, N772Y/N906L); assay: Direct binding by micro-scale thermophoresis; details: Kd (avg), average
murine IRE1α Asn906Leu, sequence (Q9EQY0 499-977 N772Y/N906L): as the sequence (Q9EQY0 499-977 N772Y/F889A) above, with A391F, N408L counted along it

[8] = molecular target: murine IRE1α Tyr892Ala (Mus musculus, UniProt Q9EQY0, N772Y/Y892A); assay: Direct binding by micro-scale thermophoresis; details: Kd (avg), average
murine IRE1α Tyr892Ala, sequence (Q9EQY0 499-977 N772Y/Y892A): as the sequence (Q9EQY0 499-977 N772Y/F889A) above, with A391F, Y394A counted along it

[9] = tested on: XBP1 mRNA splicing (IRE1α); assay: XBP1 mRNA splicing in RPMI 8226 plasmacytoma cells; format: cell-based, human
[10] = molecular target: T3, yeast IRE1 (Saccharomyces cerevisiae, UniProt P32361, DEL869-892); assay: IRE1 RNase activity, real time fluorescence readout assay; format: biochemical; details: RNase inhibition
T3 sequence (P32361 with tags, fused parts or gaps DEL869-892): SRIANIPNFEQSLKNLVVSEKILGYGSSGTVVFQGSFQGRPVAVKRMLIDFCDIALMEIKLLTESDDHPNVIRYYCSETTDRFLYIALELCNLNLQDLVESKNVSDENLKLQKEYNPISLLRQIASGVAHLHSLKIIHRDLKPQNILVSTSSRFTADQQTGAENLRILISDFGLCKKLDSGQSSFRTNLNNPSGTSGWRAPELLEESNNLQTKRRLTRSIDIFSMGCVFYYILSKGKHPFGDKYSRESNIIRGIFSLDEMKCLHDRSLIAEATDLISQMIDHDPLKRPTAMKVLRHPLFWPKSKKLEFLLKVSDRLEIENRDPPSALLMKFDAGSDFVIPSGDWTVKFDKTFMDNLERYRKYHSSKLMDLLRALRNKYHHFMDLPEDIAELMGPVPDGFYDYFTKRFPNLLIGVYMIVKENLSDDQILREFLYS

[11] = molecular target: IRE1α auto-kinase activity (Mus musculus, UniProt Q9EQY0, N772Y); assay: IRE1α auto-kinase; format: biochemical, murine
IRE1α auto-kinase activity, sequence (Q9EQY0 499-977 N772Y): as the sequence (Q9EQY0 499-977 N772Y/F889A) above, with A391F counted along it

[12] = tested on: rheumatoid arthritis model; details: cited from earlier work
[13] = tested on: myeloma tumor; details: cited from earlier work
[14] = molecular target: murine IRE1α auto-kinase activity (Mus musculus, UniProt Q9EQY0, N772Y); assay: Auto-phosphorylation kinase assay with P32-γ-ATP; format: biochemical; details: read-out: IC50 (avg) auto-kinase activity of murine IRE1α; 10 minute time point; n=2
murine IRE1α auto-kinase activity, sequence (Q9EQY0 499-977 N772Y): as the sequence (Q9EQY0 499-977 N772Y/F889A) above, with A391F counted along it

[15] = molecular target: T1, murine IRE1α; assay: Oligomerization status by velocity analytical ultracentrifugation; details: ADP 500 μM, JAK inhibitor I 30 μM
[16] = molecular target: T3, yeast IRE1; details: cited from earlier work

T1 sequence (Q9EQY0 499-977 N772Y): as the sequence (Q9EQY0 499-977 N772Y/F889A) above, with A391F counted along it
T2 sequence (Q9EQY0 499-977 N772Y/K907A): as the sequence (Q9EQY0 499-977 N772Y/F889A) above, with A391F, K409A counted along it

For `CN1CCN(C(=O)c2ccc(-c3ccc4ccc(O)c(C=O)c4c3)cc2)CC1` [MKC4027, 2-Hydroxy-7-[4-(4-methyl-piperazine-1-carbonyl)-phenyl]-naphthalene-1-carbaldehyde], the IC50 [1] was 5.7 µM.
Work on `O=Cc1c(O)ccc2ccc(Br)cc12` [MKC3987, 7-Bromo-2-hydroxy-naphthalene-1-carbaldehyde] yielded an IC50 [1] of 0.39 µM.
With `COCCOCCc1c(C)c2cc(OC)c(O)c(C=O)c2oc1=O` [MKC9989, 7-Hydroxy-6-methoxy-3-(2-(2-methoxyethoxy)ethyl)-4-methyl-2-oxo-2H-chromene-8-carbaldehyde] the “Sensitivity of RNase activity to inhibitor” value [2] was “insensitive”, the “Binding to IRE1α Lys907Ala” value [3] was “abolished detectable binding” and the “CD59 mRNA level” value ([4]; administered 2 hour post treatment with thapsigargin) was “moderately stabilized”. The “CD59 mRNA level” value ([4]; co-administered with thapsigargin relative to thapsigargin alone) was “markedly stabilized”, the “CD59 mRNA level” value ([4]; non-stressed cells) was “modestly increased” and the Kd [5] was 10.9 µM. The Kd [6] was 5.3 µM, the Kd [7] was 8.9 µM and the Kd [8] was 10 µM. The “Inhibition of basal and thapsigargin induced splicing of XBP1 mRNA” value ([9]; 10 μM compound, 1 μM thapsigargin, RPMI 8226) was “completely inhibited”, the EC50 ([9]; Homo sapiens, RPMI-8226, read-out: EC50 (avg) XBP1 splicing) was 0.33 µM and the “Resistance of yeast IRE1 relative to IRE1α” value [10] was ~ 100 fold. For the same compound, the IC50 [11] was > 10 µM.
For `Cc1cc(=O)oc2c(C=O)c(O)ccc12` [4μ8C], the “XBP1s, inflammatory cytokines and inflammation” value [12] is given as “effective in suppressing”.
For `CN1CCN(C(=O)c2ccc(-c3ccc4c(C=O)c(O)ccc4c3)s2)CC1` [MKC3946, 2-Hydroxy-6-[5-(4-methyl-piperazine-1-carbonyl)-thiophen-2-yl]-naphthalene-1-carbaldehyde], the Myeloma tumor growth [13] is given as “reduced myeloma tumor growth”, the “Splicing of XBP1 mRNA in tissues and tumors” value [13] is given as “inhibited the splicing of XBP1 mRNA in tissues and tumors” and the Tolerability in vivo [13] is given as “readily tolerated with high exposure”.
In the case of JAK inhibitor I, the IC50 [14] is listed as 1.1 µM, the “Effect on concentration dependent oligomerization of IRE1α” value [15] is listed as “enhanced” and the “Effect on dimerization/oligomerization of yeast IRE1 and its RNase activity” value [16] is listed as “promoted”.
